From patent US20250281649A1, “PROBE DIRECTED TO ENZYME ALDH1A3 AND USE THEREOF IN THE DIAGNOSIS OF GLIOBLASTOMA” (Universita' Degli Studi Del Piemonte Orientale "A. Avogadro", priority 2021, published 2025)
Entries after “also recorded” stand apart in the source; their conditions may differ.

How the values were obtained:
[1] = biological target: T1, ALDH1A1 (Homo sapiens, UniProt P00352); experiment: KD evaluation by probe fluorescence (Tecan SPARK); assay type: binding; conditions: probe fixed at 10 μM, isoenzyme 100 μM to 1 μM
T1 construct: His-tag; made in house; host or cells: bacterial cells
T1 sequence (P00352 1-501): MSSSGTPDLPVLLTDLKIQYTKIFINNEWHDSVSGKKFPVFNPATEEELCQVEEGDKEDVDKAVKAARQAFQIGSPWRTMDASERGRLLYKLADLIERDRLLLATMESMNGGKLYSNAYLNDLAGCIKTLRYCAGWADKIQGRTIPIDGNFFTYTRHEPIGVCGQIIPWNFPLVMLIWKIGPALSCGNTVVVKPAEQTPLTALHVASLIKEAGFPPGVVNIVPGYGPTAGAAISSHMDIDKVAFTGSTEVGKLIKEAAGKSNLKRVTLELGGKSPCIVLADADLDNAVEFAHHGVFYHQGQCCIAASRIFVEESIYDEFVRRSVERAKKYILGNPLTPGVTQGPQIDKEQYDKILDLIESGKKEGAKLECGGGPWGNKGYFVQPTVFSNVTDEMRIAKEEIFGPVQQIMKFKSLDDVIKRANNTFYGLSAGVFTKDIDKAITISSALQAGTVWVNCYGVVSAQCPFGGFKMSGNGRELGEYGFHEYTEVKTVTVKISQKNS
Experimental: (§1) A common protocol to express and purify all three members of the ALDHIA subfamily has been optimized. Briefly, induced cells, collected by centrifugation, were re-suspended in an appropriate volume of lysis buffer (50 mM Na2HPO4, 300 mM NaCl, 1 mM β-mercaptoethanol, 20 mM imidazole, pH 7.5) added of benzonase nuclease (250 U/μL) and Protease inhibitor cocktail from SIGMA. After ultracentrifugation, the clarified sample was purified by a His-tag affinity chromatography followed by size-exclusion chromatography, using an AKTA FPLC system, at 4° C. To evaluate the purity and homogeneity of the protein, after each purification step, eluted d fractions were analyzed by SDS-PAGE and the protein quantification was always determined by Bradford protein assay.
(§2) KD evaluation: on a Tecan—SPARK, probe 14 and 13 were tested at a fixed concentration of 10 μM. All the isoenzymes were tested in wide range of concentrations (from 100 μM to 1 μM). The analysis was settled with a BW of 20, monitoring the Em wavelength in range comprised between 520 and 535 nm for probe 14 and 520 and 580 nm for probe 13. The Ex was fixed at 420 nm for probe 14 and 440 nm for probe 13. The test was performed in quadruplicate with all the three isoenzymes. The recipe of the buffer reaction was the same as described before.

[2] = biological target: T2, ALDH1A2 (Homo sapiens, UniProt O94788); experiment: KD evaluation by probe fluorescence (Tecan SPARK); assay type: binding; conditions: probe fixed at 10 μM, isoenzyme 100 μM to 1 μM
T2 construct: His-tag; made in house; host or cells: bacterial cells
T2 sequence (O94788 1-518): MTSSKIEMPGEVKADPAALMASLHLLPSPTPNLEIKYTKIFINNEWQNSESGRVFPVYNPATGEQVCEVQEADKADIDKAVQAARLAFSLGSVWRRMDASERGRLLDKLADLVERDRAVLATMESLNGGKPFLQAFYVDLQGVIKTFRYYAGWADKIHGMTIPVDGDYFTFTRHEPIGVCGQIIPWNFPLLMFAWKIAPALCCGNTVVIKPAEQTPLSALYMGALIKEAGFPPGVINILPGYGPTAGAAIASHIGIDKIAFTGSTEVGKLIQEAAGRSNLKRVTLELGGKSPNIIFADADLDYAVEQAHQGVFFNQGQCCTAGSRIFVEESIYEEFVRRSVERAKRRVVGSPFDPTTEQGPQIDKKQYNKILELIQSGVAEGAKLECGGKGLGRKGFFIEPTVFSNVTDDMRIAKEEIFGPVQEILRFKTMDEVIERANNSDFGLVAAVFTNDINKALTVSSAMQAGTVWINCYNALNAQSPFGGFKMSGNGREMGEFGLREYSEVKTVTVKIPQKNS
Experimental: as §1, §2

[3] = test system: U87MG glioblastoma (ALDH1A3+); experiment: Confocal fluorescence of probes in cell lines; assay type: cell-based, human; conditions: 10 μM to 100 nM, after 2 h
Experimental: All 3 enzymes belonging to the subfamily 1A of aldehyde dehydrogenases were expressed recombinantly in bacterial cells and purified to homogeneity. The pure enzymes were then used to study the interaction with the molecules according to the invention, using various in vitro biochemical assays. In particular, the affinity for the isoenzymes of the selected molecules was measured through the use of a TECAN SPARK and a TECAN SUNRISE. Fluorescence assays were performed in the presence of different protein concentrations and the activity assays were conducted by measuring NAD^+ consumption. According to their specific activity, all molecules were characterized by values of KD, KM, Ki and IC50, showing a net selectivity in specifically binding the ALDH1A3 enzyme. […]
Human U87MG glioblastoma were used as ALDH1A3+ cell lines, HEK293T as ALDH1A2+ cell line, human foetal astrocytes (hASTRO) as ALDH1A1+ cell line and 4T1 mammary carcinoma as triple negative ALDHIA subfamily (checked with Western Blot analysis and RT-PCR). […] Moreover, we incubated the two probes with cells and analyzed with FACS and we observed a significant positivity in U87MG cells, too.

COc1cc(/C=C/C(=O)/C=C(O)/C=C/c2ccc(OCc3cn(CCOc4ccc(C=O)cc4)nn3)c(OC)c2)ccc1O [Compound 13]
Kd [1]: 31.1 µM | Kd [2]: 36.9 µM | fluorescence signal in cells [3]: selectivity; also recorded: selectively illuminate cells expressing only ALDH1A3

CCOC(=O)Cn1cc(COc2ccc(/C=C/C(O)=C/C(=O)/C=C/c3ccc(O)c(OC)c3)cc2OC)nn1 [Compound 14]
Kd [1]: 42.4 µM | Kd [2]: 125 µM | fluorescence signal in cells [3]: selectivity
